Where “and” joins values, the source holds several entries; their conditions need not be identical. Equal values may be shown once. Toxic doses and inconclusive results are not listed. Square brackets hold non-standard residues; d marks the D form. Peptide text beside a SMILES is read from it. Sar = CNCC(=O)O
Tested on: P388 leukemia ip, CD2F1 mice, survival T/C
Experiment: NCI In Vivo Anticancer Drug Screen. Data for tumor model P388 Leukemia (intraperitoneal) in CD2F1 (CDF1) mice
Conditions: endpoint: median survival time, higher = longer survival
Description: The antitumor activity of compounds was measured in mice bearing transplantable tumors. Survival or tumor size were measured and the results are expressed as the measurement made in the treated group (T) divided by the measurement made in the vehicle treated control group (C). The tumor model used in this assay is P388 Leukemia (intraperitoneal) in CD2F1 (CDF1) mice

[1] = dose: 100.0 mg/kg/injection, schedule: Q01DX009 (ip), vehicle: Klucel (hydroxypropylcellulose) (HPC)
[2] = dose: 200.0 mg/kg/injection, schedule: Q01DX009 (ip), vehicle: Klucel (hydroxypropylcellulose) (HPC)
[3] = dose: 50.0 mg/kg/injection, schedule: Q01DX005 (ip), vehicle: saline with Tween-80
[4] = dose: 50.0 mg/kg/injection, schedule: Q01DX009 (ip), vehicle: saline with Tween-80
[5] = dose: 100.0 mg/kg/injection, schedule: Q01DX009 (ip), vehicle: saline with Tween-80
[6] = dose: 200.0 mg/kg/injection, schedule: Q01DX009 (ip), vehicle: saline with Tween-80
[7] = dose: 400.0 mg/kg/injection, schedule: Q01DX009 (ip), vehicle: saline with Tween-80
[8] = dose: 50.0 mg/kg/injection, schedule: Q01DX005 (ip), vehicle: saline
[9] = dose: 100.0 mg/kg/injection, schedule: Q01DX005 (ip), vehicle: saline
[10] = dose: 200.0 mg/kg/injection, schedule: Q01DX005 (ip), vehicle: saline
[11] = dose: 50.0 mg/kg/injection, schedule: Q01DX005 (ip), vehicle: Klucel (hydroxypropylcellulose) (HPC)
[12] = dose: 100.0 mg/kg/injection, schedule: Q01DX005 (ip), vehicle: Klucel (hydroxypropylcellulose) (HPC)
[13] = dose: 60.0 mg/kg/injection, schedule: Q01DX005 (ip), vehicle: Klucel (hydroxypropylcellulose) (HPC)
[14] = dose: 25.0 mg/kg/injection, schedule: Q04DX002 (ip), vehicle: saline with Tween-80
[15] = dose: 50.0 mg/kg/injection, schedule: Q04DX002 (ip), vehicle: saline with Tween-80

With Cc1ccc2c(c1)C(=O)CC=C(C(=O)O)N2 the T/C [1] was 98 % of control, the T/C [2] was 104 % of control and the T/C (dose: 400.0 mg/kg/injection, schedule: Q01DX009 (ip), vehicle: Klucel (hydroxypropylcellulose) (HPC)) was 111 % of control. The T/C (dose: 600.0 mg/kg/injection, schedule: Q01DX009 (ip), vehicle: Klucel (hydroxypropylcellulose) (HPC)) was 89 % of control.
COc1cc(C/C(=C/c2ccc(OC)c3occc23)[N+](=O)[O-])cc(OC)c1OC was tested, and the T/C [3] was 98 % of control, the T/C (dose: 100.0 mg/kg/injection, schedule: Q01DX005 (ip), vehicle: saline with Tween-80) was 107 % of control and the T/C (dose: 200.0 mg/kg/injection, schedule: Q01DX005 (ip), vehicle: saline with Tween-80) was 113 % of control.
O=c1oc2cc(N=Cc3ccccc3Cl)ccc2c2ccccc12 was tested, and the T/C (dose: 6.25 mg/kg/injection, schedule: Q01DX009 (ip), vehicle: saline) was 90 % of control, the T/C (dose: 12.5 mg/kg/injection, schedule: Q01DX009 (ip), vehicle: saline) was 90 % of control and the T/C (dose: 25.0 mg/kg/injection, schedule: Q01DX009 (ip), vehicle: saline) was 91 % of control. For the same molecule, the T/C [4] was 98 % of control, the T/C (dose: 50.0 mg/kg/injection, schedule: Q01DX009 (ip), vehicle: saline) was 91 % of control and the T/C [5] was 114 % of control. The T/C [6] was 113 % of control and the T/C [7] was 87 % of control.
For Cc1cc2c(cc1NCc1ccccc1)C(C)C(=O)CCC(=O)N2Cc1ccccc1 (stereo not drawn), the T/C (dose: 12.5 mg/kg/injection, schedule: Q01DX005 (ip), vehicle: saline with Tween-80) was 101 % of control, the T/C (dose: 25.0 mg/kg/injection, schedule: Q01DX005 (ip), vehicle: saline with Tween-80) was 99 % of control and the T/C [3] was 90 % of control and 94 % of control.
With CC(C)N(CCO)CCO the T/C [8] was 104 % of control, the T/C [9] was 98 % of control and the T/C [10] was 100 % of control.
For Clc1ccc(Nc2nnc(-c3ccc4c(c3)OCO4)o2)cc1, the T/C [11] was 93 % of control, the T/C [12] was 101 % of control and the T/C (dose: 200.0 mg/kg/injection, schedule: Q01DX005 (ip), vehicle: Klucel (hydroxypropylcellulose) (HPC)) was 93 % of control.
In the case of CC(=O)C(Cl)C(=O)c1c(C)[nH]n(-c2ccccc2)c1=O (stereo not drawn), the T/C [11] is reported as 110 % of control and the T/C [12] is reported as 123 % of control.
For COc1nc(C(Cl)(Cl)Cl)c(Cl)c(OC)c1Cl, the T/C (dose: 17.8 mg/kg/injection, schedule: Q01DX005 (iv), vehicle: other) was 108 % of control, the T/C (dose: 25.0 mg/kg/injection, schedule: Q01DX005 (ip), vehicle: Klucel (hydroxypropylcellulose) (HPC)) was 114 % of control and 115 % of control and the T/C (dose: 26.7 mg/kg/injection, schedule: Q01DX005 (ip), vehicle: other) was 111 % of control and 121 % of control. The T/C (dose: 26.7 mg/kg/injection, schedule: Q01DX005 (iv), vehicle: other) was 109 % of control, the T/C (dose: 40.0 mg/kg/injection, schedule: Q01DX005 (ip), vehicle: Klucel (hydroxypropylcellulose) (HPC)) was 100 % of control and 102 % of control and the T/C [13] was 105 % of control and 107 % of control. For the same molecule, the T/C (dose: 60.0 mg/kg/injection, schedule: Q01DX005 (iv), vehicle: other) was 107 % of control, the T/C (dose: 90.0 mg/kg/injection, schedule: Q01DX005 (ip), vehicle: other) was 171 % of control and the T/C (dose: 134.0 mg/kg/injection, schedule: Q01DX005 (ip), vehicle: Klucel (hydroxypropylcellulose) (HPC)) was 150 % of control. For the same molecule, the T/C (dose: 135.0 mg/kg/injection, schedule: Q01DX005 (ip), vehicle: Klucel (hydroxypropylcellulose) (HPC)) was 106 % of control, the T/C (dose: 135.0 mg/kg/injection, schedule: Q01DX005 (ip), vehicle: other) was 196 % of control and 207 % of control and the T/C (dose: 202.3 mg/kg/injection, schedule: Q01DX005 (ip), vehicle: Klucel (hydroxypropylcellulose) (HPC)) was 105 % of control. For the same molecule, the T/C (dose: 303.3 mg/kg/injection, schedule: Q01DX005 (ip), vehicle: Klucel (hydroxypropylcellulose) (HPC)) was 168 % of control.
CN(C)c1cccc2c(S(=O)(=O)NCCCCCCCCCCCCN)cccc12 was tested, and the T/C (dose: 100.0 mg/kg/injection, schedule: Q01DX001 (ip), vehicle: saline + Tween-80 + alcohol) was 105 % of control.
In the case of CCOC(=O)C1C(c2cc(OC)c(OC)c(OC)c2)c2cc3c(cc2OC1(C)N1CCCC1)OCO3 (stereo not drawn), the T/C [13] is reported as 97 % of control, the T/C (dose: 120.0 mg/kg/injection, schedule: Q01DX005 (ip), vehicle: Klucel (hydroxypropylcellulose) (HPC)) is reported as 96 % of control and the T/C (dose: 240.0 mg/kg/injection, schedule: Q01DX005 (ip), vehicle: Klucel (hydroxypropylcellulose) (HPC)) is reported as 96 % of control.
In the case of NC(=O)CC(NC(c1ccccc1)(c1ccccc1)c1ccccc1)C(=O)ON1C(=O)CCC1=O (stereo not drawn), the T/C (dose: 25.0 mg/kg/injection, schedule: Q01DX001 (ip), vehicle: saline with Tween-80) is reported as 104 % of control, the T/C (dose: 50.0 mg/kg/injection, schedule: Q01DX001 (ip), vehicle: saline with Tween-80) is reported as 100 % of control and the T/C (dose: 100.0 mg/kg/injection, schedule: Q01DX001 (ip), vehicle: saline with Tween-80) is reported as 100 % of control.
Cc1ccc(S(=O)(=O)N/N=C/c2cccs2)cc1 was tested, and the T/C [4] was 95 % of control, the T/C [5] was 87 % of control and the T/C [6] was 93 % of control. The T/C [7] was 102 % of control.
With CCCCOc1cccc2c(NCCCCCCCCNc3c4ccccc4nc4c(OCCCC)cccc34)c3ccccc3nc12 the T/C (dose: 0.62 mg/kg/injection, schedule: Q## X009 (ip), vehicle: lactic acid) was 107 % of control, the T/C (dose: 1.25 mg/kg/injection, schedule: Q## X009 (ip), vehicle: lactic acid) was 99 % of control and the T/C (dose: 2.5 mg/kg/injection, schedule: Q## X009 (ip), vehicle: lactic acid) was 99 % of control. The T/C (dose: 5.0 mg/kg/injection, schedule: Q## X009 (ip), vehicle: lactic acid) was 106 % of control and the T/C (dose: 10.0 mg/kg/injection, schedule: Q## X009 (ip), vehicle: lactic acid) was 91 % of control.
With CC/C(=N\NC(N)=NC)c1ccc(Cl)cc1 the T/C (dose: 25.0 mg/kg/injection, schedule: Q04DX002 (ip), vehicle: saline) was 101 % of control.
CN(CC(=O)O)C(=O)CNC(=O)CN (H-Gly-Gly-[Sar]-OH) was tested, and the T/C [8] was 91 % of control, the T/C [9] was 92 % of control and the T/C [10] was 91 % of control.
For O=C1C(C(=Nc2ccccc2Cl)c2ccccc2)=C(O)c2ccccc21, the T/C [14] was 99 % of control, the T/C [15] was 92 % of control and the T/C (dose: 100.0 mg/kg/injection, schedule: Q04DX002 (ip), vehicle: saline with Tween-80) was 93 % of control.
For Cc1cc(C)n(C(N)=NC(=O)c2ccc([N+](=O)[O-])cc2)n1, the T/C (dose: 50.0 mg/kg/injection, schedule: Q01DX009 (ip), vehicle: Klucel (hydroxypropylcellulose) (HPC)) was 99 % of control, the T/C [1] was 101 % of control and the T/C [2] was 106 % of control.
In the case of CC(=O)OC(C)(C)/C=C/C(=O)[C@](C)(O)[C@H]1[C@H](O)C[C@@]2(C)[C@@H]3CC=C4[C@@H](CC[C@H](O)C4(C)C)[C@]3(CO)C(=O)C[C@]12C, the T/C (dose: 0.6 mg/kg/injection, schedule: Q01DX009 (ip), vehicle: saline sonified) is reported as 100 % of control, the T/C (dose: 1.2 mg/kg/injection, schedule: Q01DX009 (ip), vehicle: saline sonified) is reported as 100 % of control and the T/C (dose: 2.4 mg/kg/injection, schedule: Q01DX009 (ip), vehicle: saline sonified) is reported as 116 % of control.
In the case of Cc1ccc(N=C(N)N/N=C/c2ccc3c(c2)Cc2ccccc2-3)cc1, the T/C [14] is reported as 106 % of control and the T/C [15] is reported as 107 % of control.
C[n+]1c(-c2cccc(OCCCCCCCOc3cccc(-c4c5cc(N)ccc5c5ccc(N)cc5[n+]4C)c3)c2)c2cc(N)ccc2c2ccc(N)cc21 was tested, and the T/C (dose: 0.05 mg/kg/injection, schedule: Q01DX009 (ip), vehicle: water) was 123 % of control, the T/C (dose: 25.0 micrograms/kg/injection, schedule: Q01DX009 (ip), vehicle: water) was 103 % of control and the T/C (dose: 50.0 micrograms/kg/injection, schedule: Q01DX009 (ip), vehicle: water) was 118 % of control. The T/C (dose: 100.0 micrograms/kg/injection, schedule: Q01DX009 (ip), vehicle: water) was 120 % of control and the T/C (dose: 200.0 micrograms/kg/injection, schedule: Q01DX009 (ip), vehicle: water) was 100 % of control.
In the case of O=C(O)CCC1(CCC(=O)O)OCCO1.[Ag], the T/C (dose: 9.5 mg/kg/injection, schedule: Q01DX009 (ip), vehicle: saline sonified) is reported as 100 % of control, the T/C (dose: 19.0 mg/kg/injection, schedule: Q01DX009 (ip), vehicle: saline sonified) is reported as 109 % of control and the T/C (dose: 38.0 mg/kg/injection, schedule: Q01DX009 (ip), vehicle: saline sonified) is reported as 86 % of control.

Reference: PubChem BioAssay AID330 (DTP/NCI, 2004)
